Test [1] can be described thus: Inhibition of rat midbrain dopaminergic neuron firing. The format is functional. The conditions noted are these: read-out: ID50 (the source's name).
In test [2] the target is Tyrosine 3-monooxygenase (Rattus norvegicus) (UniProt P04177). Put plainly: Inhibition of tyrosine hydroxylase.
The target in test [3] is Tyrosine 3-monooxygenase (Homo sapiens, UniProt P07101). Put plainly: Inhibition of tyrosine hydroxylase.
For test [4], the target named is D(1A) dopamine receptor (Rattus norvegicus, UniProt P18901). In words: Displacement of [3H]SCH-23390 from rat dopamine D1 receptor.
In test [5] the target is D(2) dopamine receptor (Rattus norvegicus, UniProt P61169). In words: Displacement of [3H]raclopride from rat dopamine D2 receptor. (In general: Loss of bound radioactivity is the signal in a displacement assay; it reports binding, not function.)
Test [6] concerns the target Sodium-dependent dopamine transporter (Rattus norvegicus, UniProt P23977). Put plainly: Displacement of [3H]DA from rat DAT.
Test [7] concerns PC-12. Put plainly: Reduction of dopamine level in catecholamine-inducing rat PC12 cells. The format is functional, cell-based.
Test [8] addresses T1, 5-hydroxytryptamine receptor 1A (Rattus norvegicus, UniProt P19327).
T1 sequence (P19327 whole entry): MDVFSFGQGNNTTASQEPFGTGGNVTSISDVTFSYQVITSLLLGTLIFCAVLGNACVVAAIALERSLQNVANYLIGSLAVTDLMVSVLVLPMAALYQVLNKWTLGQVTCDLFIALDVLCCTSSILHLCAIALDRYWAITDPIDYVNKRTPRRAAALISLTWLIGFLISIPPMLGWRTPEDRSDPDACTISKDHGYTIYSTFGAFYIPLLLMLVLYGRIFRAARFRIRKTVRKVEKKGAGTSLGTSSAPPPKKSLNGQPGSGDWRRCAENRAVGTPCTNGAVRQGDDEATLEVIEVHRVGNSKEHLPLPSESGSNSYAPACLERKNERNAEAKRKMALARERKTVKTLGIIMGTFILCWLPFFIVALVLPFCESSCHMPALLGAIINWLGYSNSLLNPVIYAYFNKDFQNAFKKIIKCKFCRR
In words: Displacement of [3H]8-OH-DPAT from rat 5HT1A receptor.

Test [9] concerns the target 5-hydroxytryptamine receptor 7 (Rattus norvegicus) (UniProt P32305). Put plainly: Displacement of [3H]5-HT from rat 5-HT7 receptor.
For test [10], the system named is Rattus norvegicus. Put plainly: Displacement of [3H]SCH-23390 from rat dopamine D1 receptor at 40 mg/kg, ip. The format is functional. Conditions: route intraperitoneal.
Test [11] concerns Rattus norvegicus. In words: Displacement of [3H]raclopride from rat dopamine D2 receptor at 40 mg/kg, ip. It counts as functional. Conditions: route intraperitoneal.
For test [12], the system named is Rattus norvegicus. Put plainly: Inhibition of apomorphine-induced yawning in rat at 40 mg/kg, ip. Conditions: route intraperitoneal. It counts as functional. Further details: scale not given: the % may be the effect or the level left.
The subject of test [13] is Rattus norvegicus. Put plainly: Inhibition of apomorphine-induced penile erection in rat at 40 mg/kg, ip. More on the design: scale not given: the % may be the effect or the level left. The conditions noted are these: route intraperitoneal. The format is functional.
The test system of test [14] is Cerebrum. In words: Inhibition of lipid peroxidation in rat cerebrum. It counts as functional, tissue-based.
The target in test [15] is 5-hydroxytryptamine receptor 7 (Homo sapiens, UniProt P34969). In words: Binding affinity at 5HT7 receptor.

Bounds are passed on as bounds.

5-hydroxytryptamine receptor 7 (Rattus norvegicus), sequence (P32305 whole entry, looked up): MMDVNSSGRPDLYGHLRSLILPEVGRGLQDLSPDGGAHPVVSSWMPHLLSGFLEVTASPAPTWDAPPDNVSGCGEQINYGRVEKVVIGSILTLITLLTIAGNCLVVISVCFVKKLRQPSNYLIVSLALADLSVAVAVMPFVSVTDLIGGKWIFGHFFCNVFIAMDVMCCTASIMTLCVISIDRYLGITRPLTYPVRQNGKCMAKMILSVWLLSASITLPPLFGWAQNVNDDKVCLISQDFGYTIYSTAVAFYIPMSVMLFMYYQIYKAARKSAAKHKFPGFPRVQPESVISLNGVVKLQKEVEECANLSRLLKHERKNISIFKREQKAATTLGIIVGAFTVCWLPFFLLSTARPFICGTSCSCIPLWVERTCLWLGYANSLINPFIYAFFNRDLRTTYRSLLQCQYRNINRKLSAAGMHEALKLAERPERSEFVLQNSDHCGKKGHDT
Sodium-dependent dopamine transporter, sequence (P23977 whole entry): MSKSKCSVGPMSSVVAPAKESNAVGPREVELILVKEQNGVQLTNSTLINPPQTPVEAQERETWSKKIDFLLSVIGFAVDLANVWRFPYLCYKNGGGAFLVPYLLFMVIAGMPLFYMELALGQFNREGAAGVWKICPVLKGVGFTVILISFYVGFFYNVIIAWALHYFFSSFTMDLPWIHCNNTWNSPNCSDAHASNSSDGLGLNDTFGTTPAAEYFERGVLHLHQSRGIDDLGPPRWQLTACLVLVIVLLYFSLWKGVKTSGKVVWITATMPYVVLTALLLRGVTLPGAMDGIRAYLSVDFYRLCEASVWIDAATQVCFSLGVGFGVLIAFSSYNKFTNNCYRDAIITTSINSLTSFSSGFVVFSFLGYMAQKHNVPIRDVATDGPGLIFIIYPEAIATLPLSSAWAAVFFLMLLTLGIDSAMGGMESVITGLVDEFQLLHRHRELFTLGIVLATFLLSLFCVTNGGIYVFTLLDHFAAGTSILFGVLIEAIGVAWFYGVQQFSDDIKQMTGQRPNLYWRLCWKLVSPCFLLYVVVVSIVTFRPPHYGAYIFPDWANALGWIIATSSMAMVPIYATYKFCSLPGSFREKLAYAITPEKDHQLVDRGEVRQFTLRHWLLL
D(1A) dopamine receptor, sequence (P18901 whole entry): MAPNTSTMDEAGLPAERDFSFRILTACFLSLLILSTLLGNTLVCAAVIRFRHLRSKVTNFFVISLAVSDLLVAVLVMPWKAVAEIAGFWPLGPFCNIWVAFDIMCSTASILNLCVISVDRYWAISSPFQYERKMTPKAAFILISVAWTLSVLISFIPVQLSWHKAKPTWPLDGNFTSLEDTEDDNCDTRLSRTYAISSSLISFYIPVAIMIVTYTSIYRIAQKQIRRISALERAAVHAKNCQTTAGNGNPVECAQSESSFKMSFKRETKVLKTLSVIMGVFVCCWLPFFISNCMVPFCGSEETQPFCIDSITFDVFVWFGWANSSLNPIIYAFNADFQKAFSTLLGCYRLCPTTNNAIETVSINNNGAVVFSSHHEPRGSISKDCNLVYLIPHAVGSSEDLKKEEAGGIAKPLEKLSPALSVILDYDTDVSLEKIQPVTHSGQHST
D(2) dopamine receptor, sequence (P61169 whole entry): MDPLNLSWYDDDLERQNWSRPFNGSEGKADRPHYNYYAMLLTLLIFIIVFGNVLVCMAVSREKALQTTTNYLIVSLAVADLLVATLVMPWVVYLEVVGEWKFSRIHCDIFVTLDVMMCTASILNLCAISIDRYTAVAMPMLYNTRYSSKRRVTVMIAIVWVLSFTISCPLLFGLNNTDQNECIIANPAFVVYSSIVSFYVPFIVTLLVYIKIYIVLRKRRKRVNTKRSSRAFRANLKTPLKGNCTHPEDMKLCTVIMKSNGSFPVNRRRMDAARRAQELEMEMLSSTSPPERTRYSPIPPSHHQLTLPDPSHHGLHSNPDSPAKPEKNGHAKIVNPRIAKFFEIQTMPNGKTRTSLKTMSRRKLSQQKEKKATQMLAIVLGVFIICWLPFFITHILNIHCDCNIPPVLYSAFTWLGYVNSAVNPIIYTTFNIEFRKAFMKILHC
Tyrosine 3-monooxygenase (Rattus norvegicus), sequence (P04177 whole entry, looked up): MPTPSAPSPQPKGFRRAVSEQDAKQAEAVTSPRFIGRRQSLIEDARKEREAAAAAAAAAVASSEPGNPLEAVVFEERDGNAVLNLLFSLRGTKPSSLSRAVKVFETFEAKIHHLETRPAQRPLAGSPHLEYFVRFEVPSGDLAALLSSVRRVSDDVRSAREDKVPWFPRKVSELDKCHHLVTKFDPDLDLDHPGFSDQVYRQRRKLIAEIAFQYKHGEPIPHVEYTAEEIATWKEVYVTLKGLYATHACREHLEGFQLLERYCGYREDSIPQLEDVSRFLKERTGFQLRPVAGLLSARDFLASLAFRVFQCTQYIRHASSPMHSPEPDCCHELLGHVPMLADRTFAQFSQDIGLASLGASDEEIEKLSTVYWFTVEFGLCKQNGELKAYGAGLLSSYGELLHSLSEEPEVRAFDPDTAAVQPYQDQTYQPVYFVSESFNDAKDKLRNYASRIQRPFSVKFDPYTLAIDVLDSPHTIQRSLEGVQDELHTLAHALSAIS
Tyrosine 3-monooxygenase, sequence (P07101 whole entry): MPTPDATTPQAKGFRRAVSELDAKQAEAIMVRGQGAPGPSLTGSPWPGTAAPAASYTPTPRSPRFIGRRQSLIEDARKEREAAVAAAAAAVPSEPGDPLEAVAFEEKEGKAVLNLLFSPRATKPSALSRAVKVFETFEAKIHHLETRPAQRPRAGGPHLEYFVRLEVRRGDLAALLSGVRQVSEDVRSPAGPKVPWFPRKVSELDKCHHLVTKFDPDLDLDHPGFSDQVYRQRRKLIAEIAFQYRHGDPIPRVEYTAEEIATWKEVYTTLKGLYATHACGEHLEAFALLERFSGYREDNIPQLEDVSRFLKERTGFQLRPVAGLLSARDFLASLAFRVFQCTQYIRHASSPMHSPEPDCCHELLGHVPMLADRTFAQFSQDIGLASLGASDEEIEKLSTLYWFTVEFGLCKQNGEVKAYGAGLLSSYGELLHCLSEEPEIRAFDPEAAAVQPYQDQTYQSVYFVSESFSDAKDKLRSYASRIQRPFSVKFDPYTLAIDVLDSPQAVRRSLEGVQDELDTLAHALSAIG
5-hydroxytryptamine receptor 7, sequence (P34969 whole entry): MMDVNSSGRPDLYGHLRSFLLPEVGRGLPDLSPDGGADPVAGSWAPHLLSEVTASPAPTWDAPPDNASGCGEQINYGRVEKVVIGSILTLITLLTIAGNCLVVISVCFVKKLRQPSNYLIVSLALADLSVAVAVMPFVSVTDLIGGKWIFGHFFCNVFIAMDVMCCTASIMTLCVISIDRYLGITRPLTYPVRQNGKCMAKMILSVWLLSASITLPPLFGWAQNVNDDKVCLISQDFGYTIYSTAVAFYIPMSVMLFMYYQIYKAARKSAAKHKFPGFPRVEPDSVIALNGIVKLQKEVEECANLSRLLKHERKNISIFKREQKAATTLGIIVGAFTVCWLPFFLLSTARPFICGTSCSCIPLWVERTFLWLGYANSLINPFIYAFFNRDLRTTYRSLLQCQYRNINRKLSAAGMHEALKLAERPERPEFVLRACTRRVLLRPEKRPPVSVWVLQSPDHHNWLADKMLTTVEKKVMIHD

Take `CN1CCc2cccc3c2[C@H]1Cc1ccc(O)c(O)c1-3` [APOMORPHINE]: in test [1], the ED50 came to 0.018 µmol/kg.

For the compound `CCCN1CCc2cccc3c2[C@@H]1Cc1ccc(O)c(O)c1-3`, the ED50 in [1] came to 1.6 µmol/kg. In addition, in test [2], the half-inhibitory concentration (IC50) (as a rule, the concentration that gives 50% inhibition) was found to be 1000 nM.

In the case of `CN1CCc2cccc3c2[C@@H]1Cc1ccc(O)c(O)c1-3` [(S)APOMORPHINE], in [1], the ED50 was found to be 8.4 µmol/kg.

Regarding `CCCN1CCc2cccc3c2[C@@H]1Cc1cccc(O)c1-3`, the IC50 in test [3] is 87000 nM.

As for `COc1ccc2c(c1O)Oc1c(O)ccc3c1[C@H](C2)N(C)CC3` [CLAVICULINE], the values for the IC50 in [4], in [5] and in [6] were 1000 nM, 1500 nM and over 100000 nM, respectively.

Turning to `COc1c(O)c2c3c(c1OC)CCN(C)C3Cc1ccccc1-2` (stereo unspecified), the IC50 is 17200 nM in test [4], 2800 nM in test [5] and 40000 nM in test [6].

On to `COc1c(O)c2c3c(nccc3c1OC)C(C)(C)c1cc(O)ccc1-2` [MELOSMINE], for which the IC50 in test [4] is 12500 nM; in test [5], 80000 nM; in test [6] it was 24600 nM.

As for `COc1cccc2c1-c1c3c(cc4c1C(C2)N(C)CC4)OCO3` (stereo unspecified), the IC50 is over 100000 nM in [4], over 100000 nM in test [5] and 32000 nM in test [6].

In test [7], `COc1ccc2c(c1O)-c1c3c(cc4c1[C@H](C2)N(C)CC4)OCO3` [(S)-BULBOCAPNINE] returned an IC50 of 27000 nM.

On to `COc1cc2c3c(c1OC)-c1c(ccc(O)c1O)CC3N(C)CC2` (stereo unspecified) [SUAVEOLINE], for which the IC50 in [4] is 63000 nM; in [6], over 100000 nM.

Turning to `CCCN1CCc2cccc3c2[C@H]1Cc1ccc(O)c(O)c1-3` [R-N-PROPYLNORAPOMORPHINE], the ED50 in [1] turned out to be 0.002 µmol/kg. In addition, half-maximal inhibition in test [2] (IC50) required 300 nM.

Turning to `Cc1cccc(O)c1-c1cccc2c1-c1cccc3c1[C@@H](C2)N(C)CC3` (stereo in doubt; 59), the Ki (as a rule, the dissociation constant of the complex between target and ligand, obtained from inhibition or displacement) in test [5] is over 100000 nM; in [8], 300000 nM; in test [9], 4.3 nM.

In the case of `C[C@H]1c2cccc3c2-c2c1ccc1c2[C@@H](C3)N(C)CC1`, the Ki in [5] was 39 nM; in test [8], 31 nM; in [9], 6 nM.

For the compound `COc1cc2c(cc1OC)-c1c(OC)c(OC)cc3c1[C@H](C2)N(C)CC3` [GLAUCINE], the Activity in [10], in [11], in test [12] and in test [13] was 50% throughout. The results for the Ki in [4] and in test [5] were 2900 nM and 2800 nM, respectively.

Regarding `CN1CCc2cc3c(c4c2C1Cc1cccc(O)c1-4)OCO3` (stereo unspecified) [PUKATEINE], the IC50 in [14] worked out at 15000 nM; in test [4], 400 nM; in test [5], 600 nM; in test [6] it was 46000 nM.

Take `CN1CCc2ccc3[nH]c(=O)c4cccc5c4c3c2[C@H]1C5`: the Ki in test [15] turned out to be 55 nM; in test [5] it was 55 nM; in test [8], 180 nM; in test [9], 55 nM.

On to `CCCN1CCc2cccc3c2[C@H]1Cc1cccc(O)c1-3`, for which the ED50 in [1] turned out to be 0.0047 µmol/kg. The compound also came in with an IC50 in test [3] of 42000 nM.

As to `COc1cc2c(cc1O)C[C@H]1c3c(cc(O)c(OC)c3-2)CCN1C` [BOLDINE], the Activity in [10] is 25%; in [12] it was 50%; in [13] it was 50%.

Take `CN1CCc2ccc3c4c2[C@@]1(C)Cc1cccc(c1-4)C3`: the Ki in test [5] amounted to 83 nM; in test [8], 41 nM; in test [9], 7 nM.

Turning to `Cc1cccc(O)c1-c1cccc2c1-c1cccc3c1[C@@H](C2)N(C)CC3` (stereo in doubt; 60), the values for the inhibition constant (Ki) in test [5], in test [8] and in [9] were over 100000 nM, 49000 nM and 23 nM, respectively.

Regarding `Cc1cccc(C#N)c1-c1cccc2c1-c1cccc3c1[C@@H](C2)N(C)CC3` (stereo in doubt; 57), the inhibition constant Ki stood at 2500 nM in test [5], 800000 nM in [8] and 21 nM in [9].

Values taken from ChEMBL document CHEMBL1141452, “Advances in development of dopaminergic aporphinoids” (J Med Chem, 2007).
